Source: patent US20080064667A1, “OXAZOLE DERIVATIVES OF TETRACYCLINES” (Wyeth, priority 2003, published 2008)
≈ marks a conversion by molar mass, not a printed value.

Legend:
Assay in all cases: MIC, broth microdilution (NCCLS)
Format in all cases: cell-based
[1] = system: E. coli GC2203 (ATCC Control); details: Escherichia coli, Mueller-Hinton II broth, 18-22 hours at 35° C.
Experimental: (§1) Methods for in Vitro Antibacterial Evaluation
(§2) The Minimum Inhibitory Concentration (MIC)
(§3) Antimicrobial susceptibility testing. The in vitro activities of the antibiotics are determined by the broth microdilution method as recommended by the National Committee for Clinical Laboratory Standards (NCCLS) (1). Mueller-Hinton II broth (MHBII)(BBL Cockeysville, Md.) is the medium employed in the testing procedures. Microtiter plates containing serial dilutions of each antimicrobial agent are inoculated with each organism to yield the appropriate density (10^5 CFU/ml) in a 100 μl final volume. The plates are incubated for 18-22 hours at 35° C. in ambient air.
(§4) 1. NCCLS. 2000. Methods for Dilution Antimicrobial Susceptibility Tests for Bacteria That Grow Aerobically; Approved Standards: M7-A5, vol. 20. National Committe for Clinical Laboratory Standards, Wayne, Pa.

[2] = system: S. aureus GC1079 (tet(K)); details: Staphylococcus aureus, Mueller-Hinton II broth, 18-22 hours at 35° C.
Experimental: as §1, §2, §3, §4

[3] = system: S. aureus GC2216 (ATCC Control); details: Staphylococcus aureus, Mueller-Hinton II broth, 18-22 hours at 35° C.
Experimental: as §1, §2, §3, §4

[4] = system: S. pneumoniae* GC1894 (Clinical); details: Streptococcus pneumoniae, Mueller-Hinton II broth, 18-22 hours at 35° C.
Experimental: as §1, §2, §3, §4

[5] = system: E. faecalis GC2242 (Van-resistant); details: Enterococcus faecalis, Mueller-Hinton II broth, 18-22 hours at 35° C.
Experimental: as §1, §2, §3, §4

[6] = system: C. albicans GC3066 ATCC (Control); details: Candida albicans, Mueller-Hinton II broth, 18-22 hours at 35° C.
Experimental: as §1, §2, §3, §4

[7] = system: S. aureus GC4536 (Smith MP -In Vivo); details: Staphylococcus aureus, Mueller-Hinton II broth, 18-22 hours at 35° C.
Experimental: as §1, §2, §3, §4

[8] = system: S. aureus GC1131 (Clinical); details: Staphylococcus aureus, Mueller-Hinton II broth, 18-22 hours at 35° C.
Experimental: as §1, §2, §3, §4

[9] = system: S. aureus GC6466 (tet(M)); details: Staphylococcus aureus, Mueller-Hinton II broth, 18-22 hours at 35° C.
Experimental: as §1, §2, §3, §4

[10] = system: H. influenzae<> GC6896 (ATCC Control); details: Haemophilus influenzae, Mueller-Hinton II broth, 18-22 hours at 35° C.
Experimental: as §1, §2, §3, §4

E. coli GC2270 (tet(M)) = details: Escherichia coli
Experimental: as §1, §2, §3, §4

[11] = system: E. coli GC4559 (parent GC4560); details: Escherichia coli, Mueller-Hinton II broth, 18-22 hours at 35° C.
Experimental: as §1, §2, §3, §4

E. coli GC1073 (tet(B)) = details: Escherichia coli
Experimental: as §1, §2, §3, §4

[12] = system: E. faecalis GC4555 (ATCC Control); details: Enterococcus faecalis, Mueller-Hinton II broth, 18-22 hours at 35° C.
Experimental: as §1, §2, §3, §4

[13] = system: S. pneumoniae* GC4465 (Clinical); details: Streptococcus pneumoniae, Mueller-Hinton II broth, 18-22 hours at 35° C.
Experimental: as §1, §2, §3, §4

[14] = system: E. coli GC4560 (IMP mutant); details: Escherichia coli
Experimental: as §1, §2, §3, §4

[15] = system: S. pyogenes* GC4563 (Clinical); details: Streptococcus pyogenes, Mueller-Hinton II broth, 18-22 hours at 35° C.
Experimental: as §1, §2, §3, §4

[16] = system: M. catarrhalis* GC6907 (Clinical); details: Moraxella catarrhalis, Mueller-Hinton II broth, 18-22 hours at 35° C.
Experimental: as §1, §2, §3, §4

Row | Structure (SMILES) | MIC [1] [µg/mL] | MIC [2] [µg/mL] | MIC [3] [µg/mL] | MIC [4] [µg/mL] | MIC [5] [µg/mL] | MIC [6] [µg/mL] | MIC [7] [µg/mL] | MIC [8] [µg/mL] | MIC [9] [µg/mL] | MIC [10] [µg/mL] | MIC (E. coli GC2270 (tet(M))) [µg/mL] | MIC [11] [µg/mL] | MIC (E. coli GC1073 (tet(B))) [µg/mL] | MIC [12] [µg/mL] | MIC [13] [µg/mL] | MIC [14] [µg/mL] | MIC [15] [µg/mL] | MIC [16] [µg/mL]
1 | CN(C)c1cc2nc(/C=C/c3ccc(F)cc3)oc2c2c1C[C@H]1C[C@H]3[C@H](N(C)C)C(O)=C(C(N)=O)C(=O)[C@@]3(O)C(O)=C1C2=O [Example 29, (6aR,7aS,8S,11aS)-5,8-bis(dimethylamino)-2-[(E)-2-(4-fluorophenyl)ethenyl]-9,11a,12-trihydroxy-11,13-dioxo-6,6a,7,7a,8,11,11a,13-octahydrotetraceno[2,1-d][1,3]oxazole-10-carboxamide] | > 64 | 8 (≈ 13.3 µM) | 8 (≈ 13.3 µM) | 32 (≈ 53.1 µM) | 8 (≈ 13.3 µM) | > 64 | 8 (≈ 13.3 µM) | 8 (≈ 13.3 µM) | 8 (≈ 13.3 µM) | > 64 | > 64 | > 64 | > 64 | 8 (≈ 13.3 µM) | 32 (≈ 53.1 µM) | 8 (≈ 13.3 µM) | 16 (≈ 26.6 µM) | 16 (≈ 26.6 µM)
2 | CN(C)c1cc2nc(/C=C/c3ccccc3F)oc2c2c1C[C@H]1C[C@H]3[C@H](N(C)C)C(O)=C(C(N)=O)C(=O)[C@@]3(O)C(O)=C1C2=O [Example 30, (6aR,7aS,8S,11aS)-5,8-bis(dimethylamino)-2-[(E)-2-(2-fluorophenyl)ethenyl]-9,11a,12-trihydroxy-11,13-dioxo-6,6a,7,7a,8,11,11a,13-octahydrotetraceno[2,1-d][1,3]oxazole-10-carboxamide] | > 64 | 8 (≈ 13.3 µM) | 4 (≈ 6.64 µM) | 16 (≈ 26.6 µM) | 4 (≈ 6.64 µM) | > 64 | 8 (≈ 13.3 µM) | 4 (≈ 6.64 µM) | 8 (≈ 13.3 µM) | > 64 | > 64 | > 64 | > 64 | 8 (≈ 13.3 µM) | 16 (≈ 26.6 µM) | 8 (≈ 13.3 µM) | 16 (≈ 26.6 µM) | 32 (≈ 53.1 µM)
3 | CN(C)c1cc2nc(/C=C/c3ccco3)oc2c2c1C[C@H]1C[C@H]3[C@H](N(C)C)C(O)=C(C(N)=O)C(=O)[C@@]3(O)C(O)=C1C2=O [Example 22, (6aR,7aS,8S,11aS)-5,8-bis(dimethylamino)-2-[(E)-2-(2-furyl)ethenyl]-9,11a,12-trihydroxy-11,13-dioxo-6,6a,7,7a,8,11,11a,13-octahydrotetraceno[2,1-d][1,3]oxazole-10-carboxamide] | > 64 | 8 (≈ 13.9 µM) | 8 (≈ 13.9 µM) | 32 (≈ 55.7 µM) | 8 (≈ 13.9 µM) | > 64 | 8 (≈ 13.9 µM) | 8 (≈ 13.9 µM) | 8 (≈ 13.9 µM) | > 64 | > 64 | > 64 | > 64 | 8 (≈ 13.9 µM) | 32 (≈ 55.7 µM) | 8 (≈ 13.9 µM) | 16 (≈ 27.8 µM) | 16 (≈ 27.8 µM)
4 | CN(C)c1ccc(-c2nc3ccc4cc5c(c(O)c4c3o2)C(=O)[C@]2(O)C(=O)C(C(N)=O)=C(O)[C@@H](N(C)C)[C@@H]2C5)cc1 [Example 3, (7aS,8S,11aS)-8-(dimethylamino)-2-[4-(dimethylamino)phenyl]-9,11a,13-trihydroxy-11,12-dioxo-7,7a,8,11,11a,12-hexahydronaphthaceno[2,1-d][1,3]oxazole-10-carboxamide] | > 64 | 1 (≈ 1.8 µM) | 2 (≈ 3.59 µM) |  | 2 (≈ 3.59 µM) | > 64 | 2 (≈ 3.59 µM) | 2 (≈ 3.59 µM) | 2 (≈ 3.59 µM) |  | > 64 | > 64 | > 64 | 2 (≈ 3.59 µM) | 2 (≈ 3.59 µM) | 16 (≈ 28.7 µM) | 8 (≈ 14.4 µM) | 
5 | CN(C)c1cc2nc(C=C(c3ccccc3)c3ccccc3)oc2c2c1C[C@H]1C[C@H]3[C@H](N(C)C)C(O)=C(C(N)=O)C(=O)[C@@]3(O)C(O)=C1C2=O [Example 1, (6aR,7aS,8S,11aS)-5,8-bis(dimethylamino)-2-(2,2-diphenylvinyl)-9,11a,12-trihydroxy-11,13-dioxo-6,6a,7,7a,8,11,11a,13-octahydrotetraceno[2,1-d][1,3]oxazole-10-carboxamide] | > 64 | 16 (≈ 24.2 µM) | 16 (≈ 24.2 µM) | 8 (≈ 12.1 µM) | 16 (≈ 24.2 µM) | > 64 | 16 (≈ 24.2 µM) | 16 (≈ 24.2 µM) | 32 (≈ 48.4 µM) | > 64 | > 64 | > 64 | > 64 | 32 (≈ 48.4 µM) | 16 (≈ 24.2 µM) | 32 (≈ 48.4 µM) | 8 (≈ 12.1 µM) | > 64
6 | CC(C)=Cc1nc2ccc3cc4c(c(O)c3c2o1)C(=O)[C@]1(O)C(=O)C(C(N)=O)=C(O)[C@@H](N(C)C)[C@@H]1C4 [Example 2, (7aS,8S,11aS)-8-(dimethylamino)-9,11a,13-trihydroxy-2-(2-methyl-1-propenyl)-11,12-dioxo-7,7a,8,11,11a,12-hexahydronaphthaceno[2,1-d][1,3]oxazole-10-carboxamide] | > 64 | 8 (≈ 16.3 µM) | 8 (≈ 16.3 µM) |  | 8 (≈ 16.3 µM) | > 64 | 8 (≈ 16.3 µM) | 8 (≈ 16.3 µM) | 8 (≈ 16.3 µM) |  | > 64 | > 64 | > 64 | 8 (≈ 16.3 µM) | 8 (≈ 16.3 µM) | 8 (≈ 16.3 µM) | 8 (≈ 16.3 µM) | 
7 | CN(C)c1cc2nc(-c3ccncc3)oc2c2c1C[C@H]1C[C@H]3[C@H](N(C)C)C(O)=C(C(N)=O)C(=O)[C@@]3(O)C(O)=C1C2=O [Example 33, (6aR,7aS,8S,11aS)-5,8-bis(dimethylamino)-9,11a,12-trihydroxy-11,13-dioxo-2-pyridin-4-yl-6,6a,7,7a,8,11,11a,13-octahydrotetraceno[2,1-d][1,3]oxazole-10-carboxamide] | 64 (≈ 114 µM) | 16 (≈ 28.6 µM) | 16 (≈ 28.6 µM) | 32 (≈ 57.2 µM) | 16 (≈ 28.6 µM) | > 64 | 16 (≈ 28.6 µM) | 16 (≈ 28.6 µM) | 32 (≈ 57.2 µM) | 32 (≈ 57.2 µM) | > 64 | > 64 | > 64 | 16 (≈ 28.6 µM) | 16 (≈ 28.6 µM) | 16 (≈ 28.6 µM) | 8 (≈ 14.3 µM) | 8 (≈ 14.3 µM)
8 | COc1cccc(/C=C/c2nc3cc(N(C)C)c4c(c3o2)C(=O)C2=C(O)[C@]3(O)C(=O)C(C(N)=O)=C(O)[C@@H](N(C)C)[C@@H]3C[C@@H]2C4)c1 [Example 27, (6aR,7aS,8S,11aS)-5,8-bis(dimethylamino)-9,11a,12-trihydroxy-2-[(E)-2-(3-methoxyphenyl)ethenyl]-11,13-dioxo-6,6a,7,7a,8,11,11a,13-octahydrotetraceno[2,1-d][1,3]oxazole-10-carboxamide] | > 64 | 8 (≈ 13 µM) | 8 (≈ 13 µM) | 64 (≈ 104 µM) | 8 (≈ 13 µM) | > 64 | 16 (≈ 26 µM) | 8 (≈ 13 µM) | 16 (≈ 26 µM) | > 64 | > 64 | > 64 | > 64 | 16 (≈ 26 µM) | 64 (≈ 104 µM) | 32 (≈ 52.1 µM) | 64 (≈ 104 µM) | > 64
